Laboratory results reported in patent publication US12435061B2 (priority 2020, dated 2025).
Converted amounts (≈) assume the structure as drawn. Where two headings read alike, the source gives them in different places.

Assays:
hTRPV3 [1] = target: T1, hTRPV3 (Homo sapiens (Human), UniProt Q8NET8); assay: Whole-cell patch clamp, hTRPV3 Phase 1 / Phase 2 currents; format: cell-based
Procedure, shortened: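 Currents are activated by 20 μM 2-APB or by perfusate at 28 °C or warmer, in Ringer's solution, and quantified at ±80 mV.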

human hERG channels = human hERG channels (Homo sapiens (Human), UniProt Q12809); assay: hERG assay (patch clamp, CHO cells); format: cell-based
Chain of human hERG channels (Q12809 whole entry): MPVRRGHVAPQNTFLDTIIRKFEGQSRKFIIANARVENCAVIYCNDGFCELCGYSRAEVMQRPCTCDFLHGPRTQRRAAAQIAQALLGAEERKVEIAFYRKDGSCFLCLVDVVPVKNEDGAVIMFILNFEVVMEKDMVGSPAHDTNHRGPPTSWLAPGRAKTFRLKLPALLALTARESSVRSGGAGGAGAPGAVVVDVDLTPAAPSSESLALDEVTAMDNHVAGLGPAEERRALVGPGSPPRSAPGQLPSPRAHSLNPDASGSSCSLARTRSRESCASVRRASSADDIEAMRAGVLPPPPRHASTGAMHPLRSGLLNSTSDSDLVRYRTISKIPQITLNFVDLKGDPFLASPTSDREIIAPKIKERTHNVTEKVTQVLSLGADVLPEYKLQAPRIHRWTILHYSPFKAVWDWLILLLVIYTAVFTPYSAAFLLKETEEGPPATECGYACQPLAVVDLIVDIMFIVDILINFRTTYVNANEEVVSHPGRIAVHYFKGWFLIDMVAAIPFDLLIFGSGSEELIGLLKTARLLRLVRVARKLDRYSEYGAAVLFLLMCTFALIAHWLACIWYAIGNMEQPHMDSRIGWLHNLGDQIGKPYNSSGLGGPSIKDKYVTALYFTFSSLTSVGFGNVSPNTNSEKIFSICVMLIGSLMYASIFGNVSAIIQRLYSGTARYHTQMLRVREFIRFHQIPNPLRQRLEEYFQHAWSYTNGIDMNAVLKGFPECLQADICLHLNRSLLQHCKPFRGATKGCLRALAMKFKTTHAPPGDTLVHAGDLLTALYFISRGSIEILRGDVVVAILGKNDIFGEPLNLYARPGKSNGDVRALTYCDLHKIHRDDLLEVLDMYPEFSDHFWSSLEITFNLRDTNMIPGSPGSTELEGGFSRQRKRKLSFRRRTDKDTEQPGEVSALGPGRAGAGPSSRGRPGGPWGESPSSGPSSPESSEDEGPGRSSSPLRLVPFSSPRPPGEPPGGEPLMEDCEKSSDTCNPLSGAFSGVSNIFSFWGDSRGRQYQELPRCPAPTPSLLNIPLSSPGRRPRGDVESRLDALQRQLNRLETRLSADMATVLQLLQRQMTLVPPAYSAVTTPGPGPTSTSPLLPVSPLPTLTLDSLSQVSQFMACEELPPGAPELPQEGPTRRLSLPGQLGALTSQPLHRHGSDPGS
Method: hERG assay: Briefly, cells from a stable CHO cell line expressing human hERG channels were plated onto glass coverslips and used in patch clamp assays on the same day. After seal formation and break-in to whole-cell configuration, voltage steps were applied as follows: from the holding potential of −90 mV, a 2 second long step to +40 mV was applied, followed by a 1.5 second step to −50 mV. These steps were applied once every 5 seconds. The hERG current was measured at the peak of the outward tail current at −50 mV. The pipette solution was potassium aspartate based and the external solution was normal Ringer's.
All currents were recorded in whole-cell configuration using an Axopatch 200B controlled by pClamp 10 software (Molecular Devices). In each cell, when the current stabilized, the compound was perfused locally onto the cell. Two to three concentrations of the test compound were applied to each cell. At the end of compound testing, 10 μM verapamil was applied to completely block hERG currents and assess leak current.
Data were analyzed by computing the degree of current block after compound addition compared with the unblocked current amplitude. The unblocked current was predicted from the interpolation between the current amplitude prior to compound addition and after compound washout. The resulting percent block at each concentration was used to make a concentration-response plot and fitted to the Hill equation: percent block=minimum block+(maximum block-minimum block)/(1+10^(Hill slope*(log IC50−concentration))).

[2] = Metabolic Stability assay, rat liver microsomes; format: in vitro ADME; conditions: read-out: LM T1/2 (min) rat
Procedure, shortened: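 Reactions in human or rat liver microsomes at 37 °C were started with an NADPH-regenerating system, using 1 μM compound initially. Samples were taken at 0, 7, 15, 30 and 60 min, quenched in ice-cold acetonitrile/MeOH/H2O, and quantified by HPLC/MS/MS.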

[3] = Aqueous solubility assay in Normal Ringer Solution; conditions: Normal Ringer Solution, saline or isotonic, kinetic from dmso stock
Method: Following vortex and incubation for a sufficient time (e.g. 40 minutes at room temperature), solutions were filtered, quenched with acetonitrile, and analyzed by Liquid Chromotography. Solubility Limits were determined by comparison to a standard curve.

hTRPV3 [4] = target: T1, hTRPV3; assay: FLIPR Assay (calcium flux, HEK293 cells stably expressing TRPV3); format: cell-based; conditions: read-out: FLIPR IC50
Method: In Tables 3 and 4, Phase 1 refers to Phase 1 current for human (h) TRPV3 or rat (r) TRPV3, and Phase 2 refers to Phase 2 current for human (h) TRPV3 or rat (r) TRPV3. The hTRPV3 and rTRPV3 assays were performed as described herein. hERG refers to the inhibition the human ERG (hERG) channel. NaV1.5, refers to the pore forming aL-subunit of the voltage-dependent cardiac Na(+) channel and is an integral membrane protein involved in the initiation and conduction of action potentials. hTRPV3 HAMA IC50 refers to the IC50 of TRPV3 cells stably expressed in TRex-293 cells. Solubility Ringer refers to the compounds' solubility in Ringer's solution. LM T1/2 refers to liver microsome half-lives in either rat or human liver microsomes. FLIPR IC50 refers to the IC50 of the test compounds against recombinant hTRPV3 cells.
The cells were treated with IBSS and 20 mM HEPES adjusted to pH 7.4 in the presence of the fluorescent calcium indicator e.g. Fluo-4AM (5 uM) and the plates were incubated at 37° C. and […] for approximately 1 hour and cooled to room temperature. […] Relative Fluorescence Units (RFU) were measured for each response for signal maximum minus minimum during approximately 90 seconds after addition.

hTRPV3 [5] = target: T1, hTRPV3; assay: hTRPV3 HAMA IC50 assay (Hamamatsu FDSS6000 calcium flux, TRex-293 cells); conditions: read-out: hTRPV3 HAMA IC50; 2-APB stimulated calcium flux
Method: IC50s were calculated using CBIS from ChemInnovation (San Diego).

[6] = Phase 1 current, human TRPV3, read-out: hTRPV3 (nM) Phase 1
[7] = Phase 1 current, inward, whole-cell patch clamp, read-out: hTRPV3 Patch P1 Inwd

T1 sequence (Q8NET8 whole entry): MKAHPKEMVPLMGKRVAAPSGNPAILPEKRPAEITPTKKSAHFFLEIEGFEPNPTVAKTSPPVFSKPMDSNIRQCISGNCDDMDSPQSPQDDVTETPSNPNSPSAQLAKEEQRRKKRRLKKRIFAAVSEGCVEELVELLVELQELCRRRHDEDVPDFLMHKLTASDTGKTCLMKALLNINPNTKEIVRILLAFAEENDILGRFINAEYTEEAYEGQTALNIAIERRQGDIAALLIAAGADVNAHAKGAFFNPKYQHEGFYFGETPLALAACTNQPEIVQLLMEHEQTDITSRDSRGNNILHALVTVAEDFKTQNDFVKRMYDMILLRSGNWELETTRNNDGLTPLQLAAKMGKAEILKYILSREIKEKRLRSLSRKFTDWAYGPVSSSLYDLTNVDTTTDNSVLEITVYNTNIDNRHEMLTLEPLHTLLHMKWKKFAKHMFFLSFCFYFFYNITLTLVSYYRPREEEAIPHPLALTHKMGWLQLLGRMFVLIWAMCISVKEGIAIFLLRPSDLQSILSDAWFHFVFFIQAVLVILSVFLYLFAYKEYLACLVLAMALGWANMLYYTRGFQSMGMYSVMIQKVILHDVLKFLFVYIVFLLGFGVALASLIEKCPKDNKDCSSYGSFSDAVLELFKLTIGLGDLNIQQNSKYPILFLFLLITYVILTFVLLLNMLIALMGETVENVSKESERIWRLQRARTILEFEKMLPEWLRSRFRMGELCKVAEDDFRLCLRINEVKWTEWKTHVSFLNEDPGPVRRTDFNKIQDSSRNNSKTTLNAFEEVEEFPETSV

SMILES | IC50 (hTRPV3 [1]; [6]) | IC50 (hTRPV3 [1]; [7]) | IC50 (human hERG channels; (PL), read-out: hERG (nM) (PL)) | half-life at 1 μM [2] | solubility at 40 min [3] | IC50 (hTRPV3 [4]) | also measured
CC(C)c1ccccc1Oc1ccc(C2CCN(C(=O)c3ncccc3Cl)C2)c(CO)c1 (stereo not shown) [Compound 2-12, (3-chloropyridin-2-yl)(3-(2-(hydroxymethyl)-4-(2-isopropylphenoxy)phenyl)pyrrolidin-1-yl)methanone] | 101 nM | 10 to 100 nM | 12600 nM | 7.55 min | > 8 µM |  | 
CC(C)c1ccccc1Oc1ccc(C2CCN(C(=O)c3ccc(F)cn3)C2)c(CO)c1 (stereo not shown) [Compound 2-16, (5-fluoropyridin-2-yl)(3-(2-(hydroxymethyl)-4-(2-isopropylphenoxy)phenyl)pyrrolidin-1-yl)methanone] | 29.7 nM | 10 to 100 nM | 9650 nM | 5.3 min | ~4.7 µM (≈ 2.04 µg/mL) |  | IC50 (hTRPV3 [1]; Phase 2 current, human TRPV3, read-out: hTRPV3 (nM) Phase 2): 25.7 nM; IC50 (hTRPV3 [1]; Phase 2 current, inward, whole-cell patch clamp, read-out: hTRPV3 Patch P2 Inwd): 10 to 100 nM
CC(C)c1ccccc1Oc1ccc(C2CCN(C(=O)c3cccc(Cl)n3)C2)c(CO)c1 (stereo not shown) [Compound 2-20, (6-chloropyridin-2-yl)(3-(2-(hydroxymethyl)-4-(2-isopropylphenoxy)phenyl)pyrrolidin-1-yl)methanone] | 62 nM | 10 to 100 nM |  | 8.33 min | ~1.6 µM (≈ 0.722 µg/mL) |  | IC50 (human hERG channels): ~5330 nM; IC50 (human hERG channels; (M), read-out: hERG): 3910 nM
CCc1cncnc1Oc1ccc(C2CCN(C(=O)c3ncccc3Cl)C2)c(CO)c1 (stereo not shown) [Compound 2-22, (3-chloropyridin-2-yl)(3-(4-(5-ethylpyrimidin-4-yloxy)-2-(hydroxymethyl)phenyl)pyrrolidin-1-yl)methanone] | > 3200 nM | > 1000 nM | > 32000 nM | 31.8 min | > 20.3 µM |  | 
CC(C)c1ccccc1Oc1ccc(C2CCN(C(=O)c3ncccc3Cl)C2)c(C(N)=O)c1 (stereo not shown) [Compound 2-26, 2-(1-(3-chloropicolinoyl)pyrrolidin-3-yl)-5-(2-isopropylphenoxy)benzamide] | 217 nM | 100 to 1000 nM | 10400 nM | 19.7 min | > 19.2 µM |  | 
CCc1ccccc1-c1ccc(C2CCN(C(=O)c3ccc(F)cn3)C2)c(CO)c1 (stereo not shown) [Compound 2-28, (3-(2′-ethyl-3-(hydroxymethyl)biphenyl-4-yl)pyrrolidin-1-yl)(5-fluoropyridin-2-yl)methanone] | 19.6 nM | 10 to 100 nM | 13700 nM | 18.4 min | > 15 µM |  | 
CC(C)c1ccccc1-c1ccc(C2CCN(C(=O)c3ccccn3)C2)c(CO)c1 (stereo not shown) [Compound 2-42] | 22.7 nM | 10 to 100 nM | 18300 nM | 11.7 min | > 19.7 µM |  | 
CCc1ccccc1-c1ccc(C2CCN(C(=O)c3ccc(C(F)(F)F)cn3)C2)c(CO)c1 (stereo not shown) [Compound 2-47, (3-(2′-ethyl-3-(hydroxymethyl)biphenyl-4-yl)pyrrolidin-1-yl)(5-(trifluoromethyl)pyridin-2-yl)methanone] | 18.4 nM | 10 to 100 nM | 17200 nM | 28.1 min | ~5.6 µM (≈ 2.55 µg/mL) |  | 
O=C(c1ccc(F)cn1)N1CCC(c2ccc(-c3ccccc3)nc2CO)C1 (stereo not shown) [Compound 2-80] | 163 nM | 100 to 1000 nM | 5520 nM |  |  |  | 
CC(C)c1ccccc1Oc1ccc(C2CCN(Cc3ccccn3)C2)c(CO)c1 (stereo not shown) [Compound 2-87, (5-(2-isopropylphenoxy)-2-(1-(pyridin-2-ylmethyl)pyrrolidin-3-yl)phenyl)methanol] | 699 nM | 100 to 1000 nM | 260 nM | 2.46 min |  |  | 
CC(C)c1ccccc1-c1ccc(C2CCN(Cc3ccc(F)cn3)C2)c(CO)c1 (stereo not shown) [Compound 2-95] | 582 nM | 100 to 1000 nM | < 1000 nM |  |  |  | 
COc1cncc(C(=O)N2CCC(c3ccc(-c4ccccc4C4CC4)cc3CO)C2)n1 (stereo not shown) [Compound 2-125] |  |  |  |  |  | 1790 nM | IC50 (hTRPV3 [5]): 99.6 nM
COc1ncc(C(=O)N2CCC(c3ccc(-c4ccccc4C4CC4)cc3CO)C2)nc1C (stereo not shown) [Compound 2-126] |  |  |  |  |  | 1180 nM | IC50 (hTRPV3 [5]): 84 nM
O=C(c1ncon1)N1CCC(c2ccc(-c3ccccc3C3CC3)cc2CO)C1 (stereo not shown) [Compound 2-127] |  |  |  |  |  | 1900 nM | IC50 (hTRPV3 [5]): 130 nM
Cc1nc(C(=O)N2CCC(c3ccc(-c4ccccc4C4CC4)cc3CO)C2)no1 (stereo not shown) [Compound 2-128] |  |  |  |  |  | 1850 nM | IC50 (hTRPV3 [5]): 479 nM
O=C(c1ncccc1O)N1CCC(c2ccc(-c3ccccc3C3CC3)cc2CO)C1 (stereo not shown) [Compound 2-139] |  |  |  |  |  | 7680 nM | 
Cc1ccc(C(=O)N2CCC(c3ccc(-c4ccccc4C4CC4)cc3CO)C2)nc1O (stereo not shown) [Compound 2-140] |  |  |  |  |  | 5570 nM | 
COc1ccnc(C(=O)N2CCC(c3ccc(-c4ccccc4C4CC4)cc3CO)C2)c1 (stereo not shown) [Compound 2-141] |  |  |  |  |  | 4490 nM | 
